Assay results: publication PMC13052201, “Positional scanning and computational modeling reveal determinants of legumain transpeptidase activity” (Protein Science : A Publication of the Protein Society, 2026)
Where a SMILES comes first, the peptide text is derived from it. The star is where a group is joined. AMC = Cc1cc(=O)oc2cc(N*)ccc12; Cbz = O=C(OCc1ccccc1)*

Assays:
[1] = target: T1, human legumain (hLEG) (Homo sapiens, UniProt Q99538); test: Enzyme kinetic assay with fluorogenic AMC substrates, hLEG; format: biochemical; conditions: 2 nM hLEG; for Km: 50 mM citric acid pH 5.5, 100 mM NaCl, 0.05% Tween-20, 37°C, ex 380/em 460 nm, Michaelis-Menten (Z-AAN-AMC) or substrate inhibition model (Z-VAN-AMC)
T1 construct: inferred from the Ni-NTA purification of the proenzyme; made in house; host or cells: LEXSY P10 cells (Leishmania tarentolae expression system), secreted into the supernatant
T1 sequence (Q99538 18-323 limits assumed): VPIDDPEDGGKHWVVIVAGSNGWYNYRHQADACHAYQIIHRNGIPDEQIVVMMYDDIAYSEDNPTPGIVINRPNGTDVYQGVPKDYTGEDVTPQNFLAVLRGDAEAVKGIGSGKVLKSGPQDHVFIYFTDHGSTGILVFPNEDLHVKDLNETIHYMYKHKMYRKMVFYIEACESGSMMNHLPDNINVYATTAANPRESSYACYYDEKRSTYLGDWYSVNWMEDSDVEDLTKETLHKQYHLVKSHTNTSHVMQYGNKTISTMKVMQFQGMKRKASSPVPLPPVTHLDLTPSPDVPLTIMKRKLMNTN
Experimental: K m values for the substrates Z‐AAN‐AMC (benzyloxycarbonyl‐Ala‐Ala‐Asn‐7‐amino‐4‐methylcoumarin) and Z‐VAN‐AMC (benzyloxycarbonyl‐Val‐Ala‐Asn‐7‐amino‐4‐methylcoumarin) toward hLEG were determined in 50 mM citric acid buffer (pH 5.5) containing 100 mM NaCl and 0.05% Tween‐20. Reactions were carried out at 37°C with 2 nM hLEG. Substrate concentrations ranged from 100 to 0.787 μM for Z‐AAN‐AMC and from 75 to 0.28 μM for Z‐VAN‐AMC.
Reactions were initiated by addition of the enzyme, and fluorescence was monitored in a microplate reader (CLARIOstar Plus with Voyager v2405 software, BMG Labtech) at 380 nm excitation and 460 nm emission. All measurements were performed in triplicate (n = 3).
Data analysis was performed in GraphPad Prism (v9.3.1; GraphPad Software, La Jolla, CA) using the built‐in Michaelis–Menten model for Z‐AAN‐AMC and the substrate inhibition model for Z‐VAN‐AMC. Data points corresponding to 23.73 μM Z‐VAN‐AMC were excluded from analysis, as a linear fit of the initial slope was not possible. Standard errors of the curve fits are reported for all fitted parameters.

[2] = system: AtLEGβ; conditions: ref Dall et al., [2020]; cited from earlier work
Source text: To probe non‐prime side specificity, we constructed a second peptide library using the format XXXN‐CL, fixing P1' as cysteine and P2' as leucine, based on the highest‐scoring sequences from the prime‐side screen. […] Thr and Val were especially well tolerated, a trend that persisted when P2 was fixed as Ala and P3/P4 were varied (Figure S7b). These predictions were validated experimentally by comparing AtLEGβ affinity for Z‐AAN‐AMC versus Z‐VAN‐AMC fluor ...

[3] = pH 5.5, 37°C, n = 3, ± standard error of fit (Figure 9)

| Molecule | Km ([1]; n = 3, ± standard error of fit) | Km ([1]; n = 3, ± standard error of fit, listed as Z-VAN-AMC) | Vmax ratio Z-VAN-AMC vs Z-AAN-AMC ([1]; pH 5.5, 37°C) | Vmax ([1]; pH 5.5, 37°C, n = 3) | Vmax [1, 3] | Ki ([1]; pH 5.5, 37°C, substrate inhibition model, n = 3, ± standard error of fit) | Km [2] | Km ([1]; n = 3, ± standard error of fit, listed as Z-AAN-AMC) |
| --- | --- | --- | --- | --- | --- | --- | --- | --- |
| Cc1cc(=O)oc2cc(NC(=O)[C@H](CC(N)=O)NC(=O)[C@H](C)NC(=O)[C@@H](NC(=O)OCc3ccccc3)C(C)C)ccc12 [Z‐VAN‐AMC, benzyloxycarbonyl‐Val‐Ala‐Asn‐7‐amino‐4‐methylcoumarin] (Cbz-Val-Ala-Asn-{AMC}) | ~20 µM | 19.6 ± 5.32 µM | ~ 20 fold | 7800 RFU/s | 7776 ± 1591 RFU/sec | 16.2 ± 4.5 µM | 57 ± 3 µM |  |
| benzyloxycarbonyl‐Ala‐Ala‐Asn‐7‐amino‐4‐methylcoumarin [Z‐AAN‐AMC] | 55 µM |  |  | 400 RFU/s | 399.6 ± 8.6 RFU/sec |  | 337 ± 3 µM | 55.5 ± 2.4 µM |
